Data taken from ChEMBL document CHEMBL5465560, “Selectivity Literature for EUbOPEN Chemogenomic Library” (2024).

Legend:
[1] = biological target: MAP kinase-activated protein kinase 2 (Homo sapiens, UniProt P49137); assay: Selectivity interaction (Kinase screening (Nanosyn)) EUB0000604a MAPKAPK2
[2] = biological target: Cyclin-dependent kinase 15 (Homo sapiens) (UniProt Q96Q40); assay: Selectivity interaction (KinomeScan (DiscoverX)) EUB0001049a CDK15; details: at 1 µM
[3] = biological target: Serine/threonine-protein kinase PRP4 homolog (Homo sapiens) (UniProt Q13523); assay: Selectivity interaction (ActivX KiNativ screen (kinase selectivity in THP-1 cell lysates)) EUB0000639a PRPF4; format: subcellular; details: lysate, at 0.2 µM
[4] = biological target: ALK tyrosine kinase receptor (Homo sapiens, UniProt Q9UM73); details: at 10 µM
[5] = biological target: T1, Mitogen-activated protein kinase kinase kinase 13 (Homo sapiens) (UniProt O43283); assay: Selectivity interaction (KinomeScan (DiscoverX)) EUB0000045b MAP3K13
T1 sequence (whole entry): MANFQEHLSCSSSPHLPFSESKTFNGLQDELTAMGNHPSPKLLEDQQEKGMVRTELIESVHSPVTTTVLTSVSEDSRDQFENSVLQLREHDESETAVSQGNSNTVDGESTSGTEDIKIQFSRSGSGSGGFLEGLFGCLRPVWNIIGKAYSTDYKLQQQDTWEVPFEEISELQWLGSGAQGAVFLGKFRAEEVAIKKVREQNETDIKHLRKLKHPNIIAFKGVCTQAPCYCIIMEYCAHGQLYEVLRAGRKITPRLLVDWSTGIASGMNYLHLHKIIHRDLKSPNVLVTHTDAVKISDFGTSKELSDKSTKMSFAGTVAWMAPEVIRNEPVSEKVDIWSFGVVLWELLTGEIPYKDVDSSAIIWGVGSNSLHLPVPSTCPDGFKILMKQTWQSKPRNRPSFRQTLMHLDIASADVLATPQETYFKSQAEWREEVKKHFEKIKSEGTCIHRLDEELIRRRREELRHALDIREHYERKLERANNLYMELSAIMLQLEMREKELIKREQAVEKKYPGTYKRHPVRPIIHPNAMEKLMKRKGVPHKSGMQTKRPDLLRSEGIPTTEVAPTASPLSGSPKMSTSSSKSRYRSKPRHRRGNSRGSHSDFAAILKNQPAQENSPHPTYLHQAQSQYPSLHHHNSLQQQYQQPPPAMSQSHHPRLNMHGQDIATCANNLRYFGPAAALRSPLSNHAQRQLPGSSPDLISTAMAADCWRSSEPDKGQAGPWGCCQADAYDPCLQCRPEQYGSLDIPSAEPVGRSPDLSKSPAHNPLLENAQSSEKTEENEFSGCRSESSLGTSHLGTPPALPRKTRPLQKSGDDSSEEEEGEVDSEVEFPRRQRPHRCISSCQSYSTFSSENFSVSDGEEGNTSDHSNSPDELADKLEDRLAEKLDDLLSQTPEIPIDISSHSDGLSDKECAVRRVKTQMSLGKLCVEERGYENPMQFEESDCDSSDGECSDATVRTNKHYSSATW

[6] = biological target: T2, Mitogen-activated protein kinase kinase kinase 12 (Homo sapiens) (UniProt Q12852); assay: Selectivity interaction (KinomeScan (DiscoverX)) EUB0000045b MAP3K12
T2 sequence (whole entry): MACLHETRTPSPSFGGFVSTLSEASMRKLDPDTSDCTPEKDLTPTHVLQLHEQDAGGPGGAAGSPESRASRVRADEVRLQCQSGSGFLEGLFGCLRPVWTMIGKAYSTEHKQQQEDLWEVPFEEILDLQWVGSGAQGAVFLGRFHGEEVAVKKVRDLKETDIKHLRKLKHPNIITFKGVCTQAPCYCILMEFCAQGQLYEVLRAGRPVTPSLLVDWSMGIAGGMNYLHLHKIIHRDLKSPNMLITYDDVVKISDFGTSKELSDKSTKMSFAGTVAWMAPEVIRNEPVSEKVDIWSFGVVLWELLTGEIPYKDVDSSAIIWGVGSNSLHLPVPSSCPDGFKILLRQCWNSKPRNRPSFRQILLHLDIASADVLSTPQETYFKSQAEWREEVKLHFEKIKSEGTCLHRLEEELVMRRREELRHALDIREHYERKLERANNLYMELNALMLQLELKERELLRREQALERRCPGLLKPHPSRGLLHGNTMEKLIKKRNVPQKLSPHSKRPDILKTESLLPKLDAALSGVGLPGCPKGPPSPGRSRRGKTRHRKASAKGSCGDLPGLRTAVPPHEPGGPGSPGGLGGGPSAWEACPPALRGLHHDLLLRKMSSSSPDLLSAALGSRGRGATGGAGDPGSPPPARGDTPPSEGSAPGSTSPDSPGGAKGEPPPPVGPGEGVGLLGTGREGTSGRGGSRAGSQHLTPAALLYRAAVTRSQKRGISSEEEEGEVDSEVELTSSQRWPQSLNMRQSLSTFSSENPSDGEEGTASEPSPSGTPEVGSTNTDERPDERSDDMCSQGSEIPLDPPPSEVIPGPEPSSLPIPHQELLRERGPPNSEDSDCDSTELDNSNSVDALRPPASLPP

[7] = biological target: T3, Muscle, skeletal receptor tyrosine-protein kinase (Homo sapiens) (UniProt O15146); assay: Selectivity interaction (KinomeScan (DiscoverX)) EUB0000618a MUSK; details: at 10 µM
T3 sequence (whole entry): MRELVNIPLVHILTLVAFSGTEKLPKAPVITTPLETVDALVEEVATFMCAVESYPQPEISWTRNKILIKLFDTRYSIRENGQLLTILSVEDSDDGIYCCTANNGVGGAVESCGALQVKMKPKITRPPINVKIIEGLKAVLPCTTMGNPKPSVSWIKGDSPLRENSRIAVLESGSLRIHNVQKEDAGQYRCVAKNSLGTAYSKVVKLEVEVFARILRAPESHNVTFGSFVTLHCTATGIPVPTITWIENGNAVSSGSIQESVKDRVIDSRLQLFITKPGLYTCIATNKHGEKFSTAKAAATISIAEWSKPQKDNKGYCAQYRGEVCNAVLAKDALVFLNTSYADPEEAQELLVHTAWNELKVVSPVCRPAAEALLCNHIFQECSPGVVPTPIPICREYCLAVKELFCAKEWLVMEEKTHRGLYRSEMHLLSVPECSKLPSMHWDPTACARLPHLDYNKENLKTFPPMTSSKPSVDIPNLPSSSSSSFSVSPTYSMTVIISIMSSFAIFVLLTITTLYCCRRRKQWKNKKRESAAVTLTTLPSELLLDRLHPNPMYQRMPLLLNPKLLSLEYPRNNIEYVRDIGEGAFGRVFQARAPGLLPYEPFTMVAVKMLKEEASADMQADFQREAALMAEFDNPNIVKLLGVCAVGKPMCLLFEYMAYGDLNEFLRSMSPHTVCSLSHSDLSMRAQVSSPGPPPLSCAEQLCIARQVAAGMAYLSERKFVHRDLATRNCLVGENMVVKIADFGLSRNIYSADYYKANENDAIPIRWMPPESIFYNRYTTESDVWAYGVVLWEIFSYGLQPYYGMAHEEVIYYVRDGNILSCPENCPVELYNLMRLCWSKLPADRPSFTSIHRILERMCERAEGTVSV

Sequence of Cyclin-dependent kinase 15 (Homo sapiens) (Q96Q40 whole entry): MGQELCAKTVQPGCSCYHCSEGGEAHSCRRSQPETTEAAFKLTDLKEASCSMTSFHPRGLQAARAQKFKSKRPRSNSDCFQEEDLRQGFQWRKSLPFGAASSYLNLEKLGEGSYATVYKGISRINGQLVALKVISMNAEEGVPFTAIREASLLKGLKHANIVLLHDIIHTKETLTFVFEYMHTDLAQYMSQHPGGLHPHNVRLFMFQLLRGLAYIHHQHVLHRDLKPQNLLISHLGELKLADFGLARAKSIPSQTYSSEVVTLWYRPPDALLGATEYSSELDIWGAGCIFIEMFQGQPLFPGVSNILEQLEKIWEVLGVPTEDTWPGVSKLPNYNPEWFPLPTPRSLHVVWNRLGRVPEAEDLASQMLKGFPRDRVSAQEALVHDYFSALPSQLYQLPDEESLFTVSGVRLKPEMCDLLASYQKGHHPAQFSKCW
Sequence of MAP kinase-activated protein kinase 2 (P49137 whole entry, looked up): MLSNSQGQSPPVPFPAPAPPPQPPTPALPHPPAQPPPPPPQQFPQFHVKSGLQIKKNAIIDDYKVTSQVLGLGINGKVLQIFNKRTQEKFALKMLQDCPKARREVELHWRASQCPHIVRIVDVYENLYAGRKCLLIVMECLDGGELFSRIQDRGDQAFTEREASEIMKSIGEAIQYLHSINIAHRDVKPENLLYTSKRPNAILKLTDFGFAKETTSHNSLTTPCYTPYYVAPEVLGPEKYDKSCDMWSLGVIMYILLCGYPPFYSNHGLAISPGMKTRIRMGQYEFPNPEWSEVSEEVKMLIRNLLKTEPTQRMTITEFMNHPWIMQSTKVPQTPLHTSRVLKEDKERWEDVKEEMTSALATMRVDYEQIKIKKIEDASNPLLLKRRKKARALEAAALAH
Sequence of Serine/threonine-protein kinase PRP4 homolog (Homo sapiens) (Q13523 whole entry): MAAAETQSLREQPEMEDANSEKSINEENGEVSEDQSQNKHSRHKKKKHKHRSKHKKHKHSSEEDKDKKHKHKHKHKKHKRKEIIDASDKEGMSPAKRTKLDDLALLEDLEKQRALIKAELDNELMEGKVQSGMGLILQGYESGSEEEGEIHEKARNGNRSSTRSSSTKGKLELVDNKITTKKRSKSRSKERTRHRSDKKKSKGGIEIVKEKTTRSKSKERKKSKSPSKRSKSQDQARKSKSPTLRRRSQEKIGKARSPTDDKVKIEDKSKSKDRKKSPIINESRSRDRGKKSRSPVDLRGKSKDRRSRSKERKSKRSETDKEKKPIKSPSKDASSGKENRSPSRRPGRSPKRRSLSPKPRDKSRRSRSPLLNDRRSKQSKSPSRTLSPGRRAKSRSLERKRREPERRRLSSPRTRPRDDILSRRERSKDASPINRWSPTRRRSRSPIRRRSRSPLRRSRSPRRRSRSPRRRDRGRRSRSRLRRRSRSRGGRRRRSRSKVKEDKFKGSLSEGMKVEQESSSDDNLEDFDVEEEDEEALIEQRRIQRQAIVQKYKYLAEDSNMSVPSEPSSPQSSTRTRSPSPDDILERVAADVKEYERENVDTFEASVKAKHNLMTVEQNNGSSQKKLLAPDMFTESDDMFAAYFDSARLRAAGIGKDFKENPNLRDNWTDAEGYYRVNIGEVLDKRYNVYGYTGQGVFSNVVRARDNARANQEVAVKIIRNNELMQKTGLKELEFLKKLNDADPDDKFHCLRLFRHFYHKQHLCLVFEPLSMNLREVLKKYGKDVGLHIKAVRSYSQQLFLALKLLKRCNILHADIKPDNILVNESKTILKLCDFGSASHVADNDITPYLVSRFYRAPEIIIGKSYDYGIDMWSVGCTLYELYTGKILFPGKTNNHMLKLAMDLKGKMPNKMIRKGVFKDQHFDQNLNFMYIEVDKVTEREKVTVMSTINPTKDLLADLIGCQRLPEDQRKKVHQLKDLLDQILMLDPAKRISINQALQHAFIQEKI
Sequence of ALK tyrosine kinase receptor (Q9UM73 19-1620 limits assumed): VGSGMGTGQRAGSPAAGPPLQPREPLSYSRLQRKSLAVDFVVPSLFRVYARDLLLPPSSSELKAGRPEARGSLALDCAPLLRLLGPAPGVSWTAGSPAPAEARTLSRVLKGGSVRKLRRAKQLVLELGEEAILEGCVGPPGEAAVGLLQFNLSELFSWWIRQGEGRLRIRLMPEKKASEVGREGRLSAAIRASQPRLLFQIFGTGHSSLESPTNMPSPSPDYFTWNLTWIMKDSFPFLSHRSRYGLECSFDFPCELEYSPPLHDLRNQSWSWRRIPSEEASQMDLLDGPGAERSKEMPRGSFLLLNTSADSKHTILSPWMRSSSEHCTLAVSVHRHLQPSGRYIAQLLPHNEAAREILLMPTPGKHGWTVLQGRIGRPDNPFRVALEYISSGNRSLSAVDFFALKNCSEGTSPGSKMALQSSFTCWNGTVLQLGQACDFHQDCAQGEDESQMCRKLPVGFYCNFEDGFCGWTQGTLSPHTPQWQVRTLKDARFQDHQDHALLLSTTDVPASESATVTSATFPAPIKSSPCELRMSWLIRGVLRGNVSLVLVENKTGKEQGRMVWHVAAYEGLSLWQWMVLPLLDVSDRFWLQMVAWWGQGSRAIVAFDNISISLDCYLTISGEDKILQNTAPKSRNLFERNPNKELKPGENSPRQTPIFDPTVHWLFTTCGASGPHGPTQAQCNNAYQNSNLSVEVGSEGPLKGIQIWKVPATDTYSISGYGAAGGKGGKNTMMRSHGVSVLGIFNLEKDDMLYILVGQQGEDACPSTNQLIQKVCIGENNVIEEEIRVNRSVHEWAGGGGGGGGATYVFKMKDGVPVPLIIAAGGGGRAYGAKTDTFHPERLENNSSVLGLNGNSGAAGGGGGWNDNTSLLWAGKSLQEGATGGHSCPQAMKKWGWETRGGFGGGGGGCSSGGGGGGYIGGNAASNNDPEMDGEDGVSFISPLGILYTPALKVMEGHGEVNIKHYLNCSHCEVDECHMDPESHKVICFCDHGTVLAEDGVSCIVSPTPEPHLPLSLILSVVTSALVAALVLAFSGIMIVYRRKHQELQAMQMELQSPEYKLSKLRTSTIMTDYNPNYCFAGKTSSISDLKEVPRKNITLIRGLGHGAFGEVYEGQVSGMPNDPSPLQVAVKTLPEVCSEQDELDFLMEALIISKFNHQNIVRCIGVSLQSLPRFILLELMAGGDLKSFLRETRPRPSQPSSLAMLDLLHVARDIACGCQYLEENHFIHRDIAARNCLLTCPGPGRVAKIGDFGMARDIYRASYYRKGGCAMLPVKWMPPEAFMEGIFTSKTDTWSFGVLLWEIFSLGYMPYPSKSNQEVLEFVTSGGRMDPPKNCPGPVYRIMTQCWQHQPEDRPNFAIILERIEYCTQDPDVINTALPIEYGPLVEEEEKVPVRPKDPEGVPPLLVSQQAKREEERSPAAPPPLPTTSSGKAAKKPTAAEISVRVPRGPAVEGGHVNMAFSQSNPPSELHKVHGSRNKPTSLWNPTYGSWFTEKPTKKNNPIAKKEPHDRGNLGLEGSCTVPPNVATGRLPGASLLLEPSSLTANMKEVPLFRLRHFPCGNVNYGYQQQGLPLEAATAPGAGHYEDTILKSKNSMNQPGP

Compound: Cc1cnc(Nc2ccc(F)cc2Cl)nc1-c1c[nH]c(C(=O)N[C@H](CO)c2cccc(Cl)c2)c1
- % of inhibition [1]: 0%

Compound: COc1cc(Nc2nc(C)cc(-c3cnn4nc(OC)ccc34)n2)cc(C(F)(F)F)c1
- % of control [2]: 90%

Compound: CC[C@@H]1[C@H](F)C(=O)N[C@@H]1COc1nccc2cc(C(N)=O)c(OC)cc12 [ZIMLOVISERTIB]
- % of inhibition [3]: 21.9%

Compound: CCN(CC)CCCCNc1ncc2cc(-c3cc(OC)cc(OC)c3)c(NC(=O)NC(C)(C)C)nc2n1
- % of control [4]: 100%

Compound: C=CC(=O)Nc1cc(-n2c(=O)ccc3cnc4ccc(-c5ccc(NS(C)(=O)=O)cc5)cc4c32)ccc1C
- % of control ([5]; at 1 µM): 100%
- % of control ([5]; at 10 µM): 100%
- % of control ([6]; at 1 µM): 70%
- % of control ([6]; at 10 µM): 59%

Compound: O[C@H]1CC[C@H](Nc2ncc3nc(Nc4c(F)cc(F)cc4F)n([C@H]4CCOC4)c3n2)CC1
- % of control [7]: 63%
